pIC50: −log10 of the molar value. One block for each molecule: values may come before it.
What was measured:
Histone deacetylase 1 [1] = biological target: T1, Histone deacetylase 1 (Homo sapiens, UniProt Q13547); assay: Inhibition of N-terminal GST-tagged full length human HDAC1 expressed in baculovirus system using FTS as substrate preincubated for 10 mins followed by substrate addition and measured after 2 hrs by fluorescence based analysis
[2] = biological target: T2, Protein deacetylase HDAC6 (Homo sapiens, UniProt Q9UBN7); assay: Inhibition of N-terminal GST-tagged full length human HDAC6 expressed in baculovirus system using FTS as substrate preincubated for 10 mins followed by substrate addition and measured after 2 hrs by fluorescence based analysis
T2 sequence (Q9UBN7 whole entry): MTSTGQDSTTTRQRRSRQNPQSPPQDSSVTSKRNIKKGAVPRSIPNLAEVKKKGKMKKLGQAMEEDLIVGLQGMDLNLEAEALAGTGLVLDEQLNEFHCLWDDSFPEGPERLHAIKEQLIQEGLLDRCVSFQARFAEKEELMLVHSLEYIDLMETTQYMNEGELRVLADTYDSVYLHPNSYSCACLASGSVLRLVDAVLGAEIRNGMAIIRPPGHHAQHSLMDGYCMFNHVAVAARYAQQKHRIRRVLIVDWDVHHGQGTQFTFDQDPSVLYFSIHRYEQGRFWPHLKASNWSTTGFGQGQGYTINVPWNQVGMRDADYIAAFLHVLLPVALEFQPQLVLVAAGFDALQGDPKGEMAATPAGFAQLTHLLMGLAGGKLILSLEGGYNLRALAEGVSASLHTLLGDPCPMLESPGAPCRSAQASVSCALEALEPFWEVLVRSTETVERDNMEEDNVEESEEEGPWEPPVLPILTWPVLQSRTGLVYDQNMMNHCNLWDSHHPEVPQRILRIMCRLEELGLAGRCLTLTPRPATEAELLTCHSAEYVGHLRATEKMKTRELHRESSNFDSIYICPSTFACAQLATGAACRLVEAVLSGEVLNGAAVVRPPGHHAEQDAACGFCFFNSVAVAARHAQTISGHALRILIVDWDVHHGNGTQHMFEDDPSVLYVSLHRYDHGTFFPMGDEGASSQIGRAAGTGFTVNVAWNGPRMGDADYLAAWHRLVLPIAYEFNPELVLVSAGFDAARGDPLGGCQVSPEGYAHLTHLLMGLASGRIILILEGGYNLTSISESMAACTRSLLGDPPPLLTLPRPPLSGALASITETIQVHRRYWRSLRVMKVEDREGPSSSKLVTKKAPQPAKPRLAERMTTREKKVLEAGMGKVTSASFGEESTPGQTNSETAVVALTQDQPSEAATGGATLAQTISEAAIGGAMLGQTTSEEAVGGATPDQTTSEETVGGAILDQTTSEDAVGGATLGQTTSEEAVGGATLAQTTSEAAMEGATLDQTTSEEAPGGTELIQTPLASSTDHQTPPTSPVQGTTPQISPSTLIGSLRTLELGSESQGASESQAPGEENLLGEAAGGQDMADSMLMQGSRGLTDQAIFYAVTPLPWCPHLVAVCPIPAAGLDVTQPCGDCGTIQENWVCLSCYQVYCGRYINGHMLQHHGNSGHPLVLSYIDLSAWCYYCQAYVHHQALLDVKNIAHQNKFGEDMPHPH

Histone deacetylase 3 [3] = biological target: T3, Histone deacetylase 3 (Homo sapiens, UniProt O15379); assay: Inhibition of N-terminal GST-tagged full length human HDAC3 expressed in baculovirus system using FTS as substrate preincubated for 10 mins followed by substrate addition and measured after 2 hrs by fluorescence based analysis
T3 sequence (O15379 whole entry): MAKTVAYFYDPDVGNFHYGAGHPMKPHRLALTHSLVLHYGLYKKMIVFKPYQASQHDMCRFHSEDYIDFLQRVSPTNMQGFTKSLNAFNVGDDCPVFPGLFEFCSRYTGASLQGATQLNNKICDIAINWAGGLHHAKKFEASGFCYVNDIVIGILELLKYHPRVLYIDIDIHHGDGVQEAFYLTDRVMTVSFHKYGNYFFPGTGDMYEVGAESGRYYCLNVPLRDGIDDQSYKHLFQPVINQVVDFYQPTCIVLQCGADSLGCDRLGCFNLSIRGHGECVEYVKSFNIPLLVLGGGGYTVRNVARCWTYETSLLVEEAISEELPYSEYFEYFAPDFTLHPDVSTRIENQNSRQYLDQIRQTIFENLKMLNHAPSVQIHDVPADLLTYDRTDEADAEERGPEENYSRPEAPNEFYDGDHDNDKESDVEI

Histone deacetylase 2 [4] = biological target: T4, Histone deacetylase 2 (Homo sapiens, UniProt Q92769); assay: Inhibition of N-terminal GST-tagged full length human HDAC2 expressed in baculovirus system using FTS as substrate preincubated for 10 mins followed by substrate addition and measured after 2 hrs by fluorescence based analysis
T4 sequence (Q92769 whole entry): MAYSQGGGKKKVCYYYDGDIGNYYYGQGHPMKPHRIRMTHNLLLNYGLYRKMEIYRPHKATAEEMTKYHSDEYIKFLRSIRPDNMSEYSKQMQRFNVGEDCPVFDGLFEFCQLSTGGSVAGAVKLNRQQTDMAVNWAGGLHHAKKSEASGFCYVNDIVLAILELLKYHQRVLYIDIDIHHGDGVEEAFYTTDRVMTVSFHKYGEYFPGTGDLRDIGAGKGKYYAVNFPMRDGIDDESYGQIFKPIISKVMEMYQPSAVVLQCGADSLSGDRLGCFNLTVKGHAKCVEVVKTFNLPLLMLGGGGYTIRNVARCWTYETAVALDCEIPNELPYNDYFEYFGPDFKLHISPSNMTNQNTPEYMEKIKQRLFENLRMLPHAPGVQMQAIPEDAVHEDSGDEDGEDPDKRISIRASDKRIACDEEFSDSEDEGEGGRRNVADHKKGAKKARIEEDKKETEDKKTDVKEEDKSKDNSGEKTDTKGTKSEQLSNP

Histone deacetylase 8 = biological target: T5, Histone deacetylase 8 (Homo sapiens, UniProt Q9BY41); assay: Inhibition of N-terminal GST-tagged full length human HDAC8 expressed in baculovirus system using FTS as substrate preincubated for 10 mins followed by substrate addition and measured after 2 hrs by fluorescence based analysis
T5 sequence (Q9BY41 whole entry): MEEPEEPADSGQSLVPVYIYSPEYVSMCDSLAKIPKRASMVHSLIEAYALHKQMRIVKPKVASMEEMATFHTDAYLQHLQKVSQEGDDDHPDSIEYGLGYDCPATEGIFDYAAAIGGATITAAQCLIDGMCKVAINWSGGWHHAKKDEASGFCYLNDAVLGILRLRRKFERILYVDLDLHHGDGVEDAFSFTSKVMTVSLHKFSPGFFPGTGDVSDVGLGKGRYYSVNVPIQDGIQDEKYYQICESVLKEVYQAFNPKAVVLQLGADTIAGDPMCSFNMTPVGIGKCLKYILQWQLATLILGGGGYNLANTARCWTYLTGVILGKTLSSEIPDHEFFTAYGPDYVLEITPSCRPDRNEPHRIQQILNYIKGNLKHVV

Histone deacetylase 1 [5] = biological target: T1, Histone deacetylase 1; assay: Inhibition of human recombinant HDAC1 using ZMAL (Z-(Ac)Lys-AMC) as fluorogenic substrate preincubated for 5 mins followed by substrate addition and measured after 1 hr by fluorescence based analysis
Histone deacetylase 2 [6] = biological target: T4, Histone deacetylase 2; assay: Inhibition of human full length recombinant HDAC2 expressed in baculovirus infected Sf9 cells using RHKKAc as substrate preincubated for 10 mins followed by substrate addition and measured after 2 hrs by fluorescence based analysis
Histone deacetylase 3 [7] = biological target: T3, Histone deacetylase 3; assay: Inhibition of recombinant full length human HDAC3 expressed in insect Sf9 cells
Histone deacetylase 11 = biological target: T6, Histone deacetylase 11 (Homo sapiens, UniProt Q96DB2); assay: Inhibition of HDAC11 (unknown origin)
T6 sequence (Q96DB2 whole entry): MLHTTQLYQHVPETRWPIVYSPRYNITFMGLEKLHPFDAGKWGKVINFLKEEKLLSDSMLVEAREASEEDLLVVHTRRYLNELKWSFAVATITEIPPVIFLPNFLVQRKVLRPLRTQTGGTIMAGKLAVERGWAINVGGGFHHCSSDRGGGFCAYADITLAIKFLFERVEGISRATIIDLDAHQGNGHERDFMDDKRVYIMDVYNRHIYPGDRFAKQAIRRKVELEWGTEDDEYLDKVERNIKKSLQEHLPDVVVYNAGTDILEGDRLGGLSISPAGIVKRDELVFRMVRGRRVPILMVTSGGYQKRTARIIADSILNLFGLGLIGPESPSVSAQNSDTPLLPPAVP

[8] = biological target: T7, Polyamine deacetylase HDAC10 (Homo sapiens, UniProt Q969S8); assay: Inhibition of HDAC10 (unknown origin)
T7 sequence (Q969S8 whole entry): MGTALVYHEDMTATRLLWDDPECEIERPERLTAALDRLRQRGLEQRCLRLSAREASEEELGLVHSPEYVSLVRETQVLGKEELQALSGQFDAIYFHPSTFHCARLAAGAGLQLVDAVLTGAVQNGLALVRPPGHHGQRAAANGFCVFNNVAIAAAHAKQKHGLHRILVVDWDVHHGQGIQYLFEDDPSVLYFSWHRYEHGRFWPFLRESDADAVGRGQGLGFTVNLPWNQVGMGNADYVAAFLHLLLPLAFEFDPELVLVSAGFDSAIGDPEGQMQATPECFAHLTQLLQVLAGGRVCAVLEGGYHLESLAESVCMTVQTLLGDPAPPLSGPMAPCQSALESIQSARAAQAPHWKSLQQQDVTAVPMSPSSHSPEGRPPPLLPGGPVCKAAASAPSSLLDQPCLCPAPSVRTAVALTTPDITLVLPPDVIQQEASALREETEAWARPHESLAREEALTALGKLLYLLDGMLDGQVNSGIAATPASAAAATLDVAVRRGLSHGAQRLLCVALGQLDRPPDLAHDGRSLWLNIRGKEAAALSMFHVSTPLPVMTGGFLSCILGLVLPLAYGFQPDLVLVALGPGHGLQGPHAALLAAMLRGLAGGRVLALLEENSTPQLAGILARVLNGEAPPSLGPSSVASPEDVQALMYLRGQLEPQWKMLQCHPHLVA

T1 sequence (Q13547 whole entry): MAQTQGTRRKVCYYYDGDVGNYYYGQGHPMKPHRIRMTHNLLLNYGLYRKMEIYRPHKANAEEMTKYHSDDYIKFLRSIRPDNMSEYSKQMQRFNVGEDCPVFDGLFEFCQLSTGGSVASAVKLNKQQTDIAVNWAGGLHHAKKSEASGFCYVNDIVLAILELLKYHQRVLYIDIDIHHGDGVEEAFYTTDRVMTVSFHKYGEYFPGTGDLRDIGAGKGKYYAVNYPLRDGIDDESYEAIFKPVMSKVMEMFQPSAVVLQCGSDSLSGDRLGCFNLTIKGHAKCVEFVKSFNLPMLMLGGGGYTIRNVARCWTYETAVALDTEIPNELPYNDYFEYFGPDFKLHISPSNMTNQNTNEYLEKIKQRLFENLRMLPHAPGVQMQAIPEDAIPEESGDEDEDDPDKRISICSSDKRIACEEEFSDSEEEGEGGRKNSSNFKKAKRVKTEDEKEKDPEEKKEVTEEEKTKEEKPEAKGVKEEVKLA

- pIC50 (Histone deacetylase 1 [1]): 8.08
- pIC50 [2]: 9.40
- pIC50 (Histone deacetylase 3 [3]): 7.29
- pIC50 (Histone deacetylase 2 [4]): 7.81
- pIC50 (Histone deacetylase 8): 5.84
SMILES: O=C(CCCCCCC(=O)N/N=C/c1ccc(N(c2ccccc2)c2ccccc2)cc1)NO

- pIC50 (Histone deacetylase 1 [5]): 8.92
- pIC50 (Histone deacetylase 2 [6]): 8.62
- pIC50 (Histone deacetylase 3 [7]): 8.70
SMILES: CC(C)[C@H](N)C(=O)SCC/C=C/[C@@H]1CC(=O)NCc2nc(cs2)C(=O)NC(C)(C)C(=O)N[C@@H](C(C)C)C(=O)O1 [BOCODEPSIN BESYLATE]

- pIC50 (Histone deacetylase 11): 6.36
- pIC50 [8]: 7.11
SMILES: Nc1cc(F)ccc1NC(=O)c1ccc(CNC(=O)/C=C/c2cccnc2)cc1 [TUCIDINOSTAT]

Source: ChEMBL document CHEMBL5344407, “Histone deacetylases (HDACs) as the promising immunotherapeutic targets for hematologic cancer treatment” (Eur J Med Chem, 2023)
